Assay results as given in US7972831B2, “Lipases from thermophilic anaerobes” (Novozymes A/S, priority 2004, dated 2011).
“And” between values parts separate entries of the source, which are not always exact repeats. Equal entries are not always repeated.

Assays:
[1] = tested on: lipase of SEQ ID NO: 2; assay: Enantioselectivity of ester hydrolysis; assay type: biochemical, Thermoanaerobacter thermohydrosulfuricus
Experimental: The (S)-alcohols were formed. The lipase was more enantioselective towards butynol butyrate than towards butynol acetate. Over time the conversion increased for all four substrates and reached above 20-30% after 24 h of reactions time. Over time in the contrast to the conversion the enantioselectivity of the enzyme towards both substrates decreased for butynol butyrate from 16.7 to 8.06 and for butynol acetate from 9.15 to 2.65 after 40 h of reactions time. […] For two other substrates the enantioselectivity of the lipase (E≧1) was constant over time.

[2] = tested on: lipase of SEQ ID NO: 4; assay: Effect of inhibitors on lipase activity; assay type: biochemical, Caldanaerobacter subterraneus subsp. tengcongensis; conditions: up to 10 mM
[3] = tested on: lipase of SEQ ID NO: 2; assay: Effect of inhibitors on lipase activity; assay type: biochemical, Thermoanaerobacter thermohydrosulfuricus; conditions: up to 10 mM
[4] = tested on: lipase; assay: Effects of metal ions on lipase activity; assay type: biochemical; conditions: metal ions up to 10 mM
Excerpt: The activity was decreased by the following ions: Zn2+, Fe2+, Fe3+ and Cr3+.

[5] = tested on: lipase of SEQ ID NO: 2; assay: Substrate specificity for pNP-esters; assay type: biochemical, Thermoanaerobacter thermohydrosulfuricus; conditions: pNP-ester 1 mM, pH 8.0, 10 min at 70° C.
[6] = tested on: lipase of SEQ ID NO: 2; assay: Effect of solvents on lipase activity; assay type: biochemical, Thermoanaerobacter thermohydrosulfuricus; conditions: solvent up to 50% by volume
[7] = tested on: lipase of SEQ ID NO: 2; assay: Substrate specificity with triacylglycerols; assay type: biochemical, Thermoanaerobacter thermohydrosulfuricus; conditions: triacylglycerol 10 mM, pH 8.0, 25 h at 70° C.
Experimental: The lipase of SEQ ID NO: 2 was tested by reaction with various triacylglycerols 10 mM (pH 8.0) as substrates: for 25 h at 70° C. Similar results were obtained with the lipase of SEQ ID NO: 4.

[8] = tested on: lipase from T. thermohydrosulfuricum (SEQ ID NO: 2); assay: Alcoholysis of triacylglycerols (positional specificity towards triglycerides); assay type: biochemical, Thermoanaerobacter thermohydrosulfuricus; conditions: for DG 1,2- 2,3- / DG 1,3- / FA (fatty acid) / MG 1- 3- / TG (remaining substrate): alcoholysis with ethanol in acetone, 7 h at 65° C.
Experimental: Alcoholysis of various triacylglycerols catalyzed by the lipase of SEQ ID NO: 2 were tested. All substrates were alcoholyzed by the lipase. […] For other substrates the conversions were above 40%. The lipase catalysed the synthesis of 1,3-diacylglycerides and 1- and 3-monoacylglycerides from triacylglycerides at highest rate. No sn2-monoglyceride was produced. […] With the length of the ester bonds the 2-positional specificity of the protein increased.
The positional specificity of the lipase from T. thermohydrosulfuricum (SEQ ID NO: 2) was tested towards the following triglycerides (TG, triacylglycerols): trilaurin (C12), trimyristin (C14), tripalmitin (C16), tristearin (C18), Triolein (C18:1). Each TG (3 mmol) was dissolved in organic solvent (2 ml acetone) and pre-equilibrated at 65° C. for 15 min, 400 rpm. Dry ethanol (3 mmol) was added and reaction mixture was incubated at 65° C. for 15 min, 400 rpm. Lipase (10% based on TG weight) was added to start reaction. Reaction was carried out in a 4-ml screw-capped vial and the reaction mixture was mixed with magnetic stirrer (400 rpm). Aliquot amount of reaction mixture (20 μl) was periodically withdrawn and diluted with chloroform (80 μl) to appropriate dilution, followed by analysis with latroscan to determine acylglycerol composition.
Changes in glycerides composition of the reaction medium during reaction were quantitatively determined by TLC/FID using latroscan analytical methods (latroscan, latron Laboratories, Inc., Tokyo, Japan). Before analysis, a blank of the chromarod was scanned. After treating chromarod with boric acid (3%) and drying for 5 min, 0.1 μl of the reaction medium (diluted in chloroform at appropriate dilution) is spotted onto the chromarod and the spotted sample was developed for 10 cm in a mixture of benzene:chloroform:acetic acid (50:30:0.5, by vol) for 35 min. After drying, the chromarod in an oven at 110° C. for 5 min, scanning is performed at a hydrogen flow rate of 160 ml/min and an air flow rate of 2.01/min to produce a chromatogram.
The results of the alcoholysis of the triacylglycerols catalysed by the lipase from […] after 7 h reactions time at 65° C. are given below as % of remaining substrate (TG) and % of the following products: fatty acid (FA), diglycerides (DG, with 1,3-DG separated from 1,2- and 2,3-DG), monoglyceride (MG, with 2-MG separated from 1- and 3-MG).

Compound: CC(=O)OC(C)Cc1ccccc1 (stereo not shown) [1-phenyl-2-propyl-acetate]
- lipase activity towards substrate [1]: active

Compound: OCCS [b-mercaptoethanol]
- effect on the activity of the lipase [2]: little effect
- effect on the activity of the lipase [3]: little effect

Compound: [Cu+2] [Cu2+]
- lipase activity in the presence of metal ions [4]: nearly unchanged

Compound: CCCCCCCCCCCCCCCCCC(=O)Oc1ccc([N+](=O)[O-])cc1 [pNP-stearate, pNP-stearate (C18:0)]
- Relative activity [5]: 8

Compound: [Fe+2] [Fe2+]
- lipase activity in the presence of metal ions [4]: decreased

Compound: CC(C)(C)O [tert-butanol]
- effect on the activity of the lipase [6]: little effect

Compound: [Mn+2] [Mn2+]
- lipase activity in the presence of metal ions [4]: nearly unchanged

Compound: [Ca+2] [Ca2+]
- lipase activity in the presence of metal ions [4]: nearly unchanged

Compound: CCCC(=O)OCC(COC(=O)CCC)OC(=O)CCC [Tributyrin, Tributyrin (C4:0)]
- Relative activity [7]: 10

Compound: CN(C)C=O [dimethylformamide]
- effect on the activity of the lipase [6]: little effect

Compound: CCCC(=O)Oc1ccc([N+](=O)[O-])cc1 [pNP-butyrate, pNP-butyrate (C4:0)]
- Relative activity [5]: 57

Compound: CCCCCCCCCCCCCCCC(=O)OCC(COC(=O)CCCCCCCCCCCCCCC)OC(=O)CCCCCCCCCCCCCCC [Tripalmitin, Tripalmitin (C16:0)]
- DG 1,2- 2,3- [8]: 1%
- DG 1,3- [8]: 13%
- FA (fatty acid) [8]: 3%
- MG 1- 3- [8]: 18%
- TG (remaining substrate) [8]: 65%
- Relative activity [7]: 22

Compound: CCCCCCCCCC(=O)Oc1ccc([N+](=O)[O-])cc1 [pNP-caprate, pNP-caprate (C10:0)]
- Relative activity [5]: 100

Compound: [Rb+] [Rb+]
- lipase activity in the presence of metal ions [4]: nearly unchanged

Compound: CCCCCCCCCCCCCCCC(=O)Oc1ccc([N+](=O)[O-])cc1 [pNP-palmitate, pNP-palmitate (C16:0)]
- Relative activity [5]: 32

Compound: CO [methanol]
- effect on the activity of the lipase [6]: little effect

Compound: CCCCCCCCCCCCCC(=O)OCC(COC(=O)CCCCCCCCCCCCC)OC(=O)CCCCCCCCCCCCC [Trimyristin, Trimyristin (C14:0)]
- DG 1,2- 2,3- [8]: 2%
- DG 1,3- [8]: 12%
- FA (fatty acid) [8]: 1%
- MG 1- 3- [8]: 19%
- TG (remaining substrate) [8]: 66%
- Relative activity [7]: 8

Compound: O[C@@H](CS)[C@@H](O)CS [DTT]
- effect on the activity of the lipase [2]: little effect
- effect on the activity of the lipase [3]: little effect

Compound: [Na+] [Na+]
- lipase activity in the presence of metal ions [4]: nearly unchanged

Compound: CC(=O)Oc1ccc([N+](=O)[O-])cc1 [pNP-acetate, pNP-acetate (C2:0)]
- Relative activity [5]: 9

Compound: CCCCCCCC(=O)OCC(COC(=O)CCCCCCC)OC(=O)CCCCCCC [Tricaprylin, Tricaprylin (C8:0)]
- Relative activity [7]: 100

Compound: Triolein (C18:1)
- DG 1,3- [8]: 18%
- FA (fatty acid) [8]: 2%
- MG 1- 3- [8]: 17%
- TG (remaining substrate) [8]: 63%
- Relative activity [7]: 12

Compound: [Sr+2] [Sr2+]
- lipase activity in the presence of metal ions [4]: nearly unchanged

Compound: butynol acetate
- enantiopreference [1]: (S)-preference
- lipase activity towards substrate [1]: active
- E-value (enantioselectivity) ([1]; after 40 h of reactions time): 2.65
- E-value (enantioselectivity) ([1]; initial value): 9.2 and 9.15

Compound: C[S+](C)[O-] [DMSO]
- effect on the activity of the lipase [6]: little effect

Compound: CCCCCC(=O)Oc1ccc([N+](=O)[O-])cc1 [pNP-caproate, pNP-caproate (C6:0)]
- Relative activity [5]: 81

Compound: [Al+3] [Al3+]
- lipase activity in the presence of metal ions [4]: nearly unchanged

Compound: CCCCCC(=O)OCC(COC(=O)CCCCC)OC(=O)CCCCC [Tricaproin, Tricaproin (C6:0)]
- Relative activity [7]: 74

Compound: CC(C)O [isopropanol]
- effect on the activity of the lipase [6]: little effect

Compound: [Zn+2] [Zn2+]
- lipase activity in the presence of metal ions [4]: decreased

Compound: [Co+2] [Co2+]
- lipase activity in the presence of metal ions [4]: nearly unchanged

Compound: CCCCCCCCCCCC(=O)OCC(COC(=O)CCCCCCCCCCC)OC(=O)CCCCCCCCCCC [Trilaurin, Trilaurin (C12:0)]
- DG 1,2- 2,3- [8]: 6%
- DG 1,3- [8]: 12%
- FA (fatty acid) [8]: 2%
- MG 1- 3- [8]: 22%
- TG (remaining substrate) [8]: 58%
- Relative activity [7]: 11

Compound: CCO [ethanol]
- effect on the activity of the lipase [6]: little effect

Compound: CCCCCCCCCC(=O)OCC(COC(=O)CCCCCCCCC)OC(=O)CCCCCCCCC [Tricaprin, Tricaprin (C10:0)]
- Relative activity [7]: 15

Compound: [Mg+2] [Mg2+]
- lipase activity in the presence of metal ions [4]: nearly unchanged

Compound: CC#N [acetonitrile]
- effect on the activity of the lipase [6]: little effect

Compound: CCCCCCCCCCCCCC(=O)Oc1ccc([N+](=O)[O-])cc1 [pNP-myristate, pNP-myristate (C14:0)]
- Relative activity [5]: 68

Compound: CCCCCCCCCCCC(=O)Oc1ccc([N+](=O)[O-])cc1 [pNP-laurate, pNP-laurate (C12:0)]
- Relative activity [5]: 84

Compound: [Cr+3] [Cr3+]
- lipase activity in the presence of metal ions [4]: decreased

Compound: CC(=O)OC(C)c1ccccc1 (stereo not shown) [1-phenyl-1-ethyl-acetate]
- lipase activity towards substrate [1]: active

Compound: [Ni+2] [Ni2+]
- lipase activity in the presence of metal ions [4]: nearly unchanged

Compound: [Fe+3] [Fe3+]
- lipase activity in the presence of metal ions [4]: decreased

Compound: CC(C)=O [acetone]
- effect on the activity of the lipase [6]: little effect

Compound: [K+] [K+]
- lipase activity in the presence of metal ions [4]: nearly unchanged

Compound: butynol butyrate
- enantiopreference [1]: (S)-preference
- lipase activity towards substrate [1]: active
- E-value (enantioselectivity) ([1]; after 40 h of reactions time): 8.06
- E-value (enantioselectivity) ([1]; initial value): 16.7

Compound: CCCCCCCC(=O)Oc1ccc([N+](=O)[O-])cc1 [pNP-caprylate, pNP-caprylate (C8:0)]
- Relative activity [5]: 90

Compound: CCCCCCCCCCCCCCCCCC(=O)OCC(COC(=O)CCCCCCCCCCCCCCCCC)OC(=O)CCCCCCCCCCCCCCCCC [Tristearin, Tristearin (C18:0)]
- conversion ([8]; alcoholysis of triacylglycerol): 67%
- DG 1,3- [8]: 48%
- FA (fatty acid) [8]: 10%
- MG 1- 3- [8]: 9%
- TG (remaining substrate) [8]: 33%
- Relative activity [7]: 9

Compound: [Ag+] [Ag+]
- lipase activity in the presence of metal ions [4]: nearly unchanged

Compound: CC(=O)OCC(COC(C)=O)OC(C)=O [Triacetin, Triacetin (C2:0)]
- Relative activity [7]: 5

Compound: c1ccncc1 [pyridine]
- effect on the activity of the lipase [6]: little effect
